Reference: ChEMBL document CHEMBL1201862, “PubChem BioAssay data set” (2004)
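Five compound concentrations were applied to cells in 96-well plates for 48 hours; endpoints were derived by simple linear interpolation of the resulting dose-response curve. GI50 = concentration required for 50% inhibition of growth.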 Calls of active or inactive are those of the source. Rule as the data show it: active = GI50 up to about 1.1 µM and inactive = higher.

Columns and labels:
Test in all cases: NCI tumour cell line growth inhibition, 48 h
[1] = test system: SN12C
[2] = test system: IGROV-1
[3] = test system: Malme-3M
[4] = test system: LOX IMVI
[5] = test system: HOP-92
[6] = test system: NCI-H226
[7] = test system: A498
[8] = test system: SW-620
[9] = test system: A549
[10] = test system: RXF 393
[11] = test system: K562
[12] = test system: NCI-H23
[13] = test system: HOP-62
[14] = test system: NCI/ADR-RES
[15] = test system: MCF7
[16] = test system: COLO 205
[17] = test system: MDA-MB-231
[18] = test system: NCI-H460
[19] = test system: SK-OV-3
[20] = test system: Hs-578T
[21] = test system: OVCAR-5
[22] = test system: 786-0
[23] = test system: SK-MEL-5
[24] = test system: TK-10
[25] = test system: SNB-75
[26] = test system: RPMI-8226
[27] = test system: OVCAR-3
[28] = test system: PC-3
[29] = test system: KM12
[30] = test system: SF-268
[31] = test system: SK-MEL-28
[32] = test system: DU-145
[33] = test system: SF-295
[34] = test system: HCT-15
[35] = test system: SNB-19
[36] = test system: OVCAR-4
[37] = test system: UO-31
[38] = test system: CAKI-1
[39] = test system: SF-539
[40] = test system: HCT-116
[41] = test system: MDA-MB-435
[42] = test system: OVCAR-8
[43] = test system: U-251
[44] = test system: ACHN
[45] = test system: M14
[46] = test system: UACC-62
[47] = test system: CCRF-CEM
[48] = test system: MDA-N
[49] = test system: EKVX
[50] = test system: T47D
[51] = test system: HT-29
[52] = test system: UACC-257
[53] = test system: MOLT-4
[54] = test system: NCI-H522
[55] = test system: HCC 2998
[56] = test system: SR
[57] = test system: HL-60
[58] = test system: BT-549

Measured: GI50

CN(C)c1n/c(=N/Cc2cccs2)ss1
> 10 µM: [34]
active: [47] 0.173 µM | [56] 0.573 µM
inactive: [1] > 10 µM | [2] > 10 µM | [3] > 10 µM | [4] > 5.62 µM | [5] > 10 µM | [6] > 10 µM | [7] > 10 µM | [8] > 10 µM | [9] > 10 µM | [10] > 10 µM | [11] 3.4 µM | [12] > 10 µM | [13] > 10 µM | [14] > 10 µM | [15] > 10 µM | [16] > 10 µM | [17] > 10 µM | [18] > 10 µM | [19] > 10 µM | [20] > 10 µM | [21] > 10 µM | [22] 9.98 µM | [23] > 10 µM | [24] > 10 µM | [25] > 10 µM | [26] > 3.04 µM | [27] > 10 µM | [28] > 10 µM | [29] > 10 µM | [30] > 10 µM | [31] > 10 µM | [32] > 10 µM | [33] > 10 µM | [35] > 10 µM | [36] > 10 µM | [37] > 10 µM | [38] > 10 µM | [39] > 10 µM | [40] > 10 µM | [41] > 10 µM | [42] > 10 µM | [43] > 10 µM | [44] > 10 µM | [45] > 10 µM | [46] > 10 µM | [48] > 10 µM | [49] > 10 µM | [50] > 10 µM | [51] > 10 µM | [52] > 10 µM | [53] 1.72 µM | [54] 2.11 µM | [55] > 10 µM | [57] 1.35 µM

Cc1cc(C)c(N[S+]([O-])c2ccc(Cl)cc2)c(C)c1 (centres undefined)
> 100 µM: [34]
inactive: [1] > 100 µM | [3] > 100 µM | [5] 68.7 µM | [6] > 100 µM | [7] > 100 µM | [8] > 100 µM | [9] > 100 µM | [10] > 100 µM | [11] > 100 µM | [12] > 100 µM | [13] > 100 µM | [14] > 100 µM | [15] > 100 µM | [16] > 100 µM | [18] > 100 µM | [21] > 100 µM | [22] > 100 µM | [24] > 100 µM | [26] > 100 µM | [27] > 100 µM | [28] > 100 µM | [58] > 100 µM | [29] > 100 µM | [30] > 100 µM | [31] > 100 µM | [32] > 100 µM | [33] > 100 µM | [35] > 100 µM | [37] > 100 µM | [39] > 100 µM | [40] > 100 µM | [41] 51.5 µM | [42] > 100 µM | [43] > 100 µM | [44] > 100 µM | [45] > 100 µM | [47] > 100 µM | [48] 71.1 µM | [49] > 100 µM | [50] > 100 µM | [51] > 100 µM | [52] > 100 µM | [53] > 100 µM | [55] 83.4 µM | [56] > 100 µM | [57] > 100 µM
